ChEMBL document CHEMBL4507319 (2021)

What was measured:
Conditions in all cases: Compound concentration 1000.0 nM
[1] = biological target: Transient receptor potential cation channel subfamily M member 6 (Homo sapiens) (UniProt Q9BX84)
[2] = biological target: Calcium/calmodulin-dependent protein kinase type II subunit delta (Homo sapiens) (UniProt Q13557)
[3] = biological target: Hormonally up-regulated neu tumor-associated kinase (Homo sapiens) (UniProt P57058)
[4] = biological target: Serine/threonine-protein kinase DCLK1 (Homo sapiens) (UniProt O15075)
[5] = biological target: T1, Ephrin type-A receptor 1 (Homo sapiens) (UniProt P21709)
T1 sequence (whole entry): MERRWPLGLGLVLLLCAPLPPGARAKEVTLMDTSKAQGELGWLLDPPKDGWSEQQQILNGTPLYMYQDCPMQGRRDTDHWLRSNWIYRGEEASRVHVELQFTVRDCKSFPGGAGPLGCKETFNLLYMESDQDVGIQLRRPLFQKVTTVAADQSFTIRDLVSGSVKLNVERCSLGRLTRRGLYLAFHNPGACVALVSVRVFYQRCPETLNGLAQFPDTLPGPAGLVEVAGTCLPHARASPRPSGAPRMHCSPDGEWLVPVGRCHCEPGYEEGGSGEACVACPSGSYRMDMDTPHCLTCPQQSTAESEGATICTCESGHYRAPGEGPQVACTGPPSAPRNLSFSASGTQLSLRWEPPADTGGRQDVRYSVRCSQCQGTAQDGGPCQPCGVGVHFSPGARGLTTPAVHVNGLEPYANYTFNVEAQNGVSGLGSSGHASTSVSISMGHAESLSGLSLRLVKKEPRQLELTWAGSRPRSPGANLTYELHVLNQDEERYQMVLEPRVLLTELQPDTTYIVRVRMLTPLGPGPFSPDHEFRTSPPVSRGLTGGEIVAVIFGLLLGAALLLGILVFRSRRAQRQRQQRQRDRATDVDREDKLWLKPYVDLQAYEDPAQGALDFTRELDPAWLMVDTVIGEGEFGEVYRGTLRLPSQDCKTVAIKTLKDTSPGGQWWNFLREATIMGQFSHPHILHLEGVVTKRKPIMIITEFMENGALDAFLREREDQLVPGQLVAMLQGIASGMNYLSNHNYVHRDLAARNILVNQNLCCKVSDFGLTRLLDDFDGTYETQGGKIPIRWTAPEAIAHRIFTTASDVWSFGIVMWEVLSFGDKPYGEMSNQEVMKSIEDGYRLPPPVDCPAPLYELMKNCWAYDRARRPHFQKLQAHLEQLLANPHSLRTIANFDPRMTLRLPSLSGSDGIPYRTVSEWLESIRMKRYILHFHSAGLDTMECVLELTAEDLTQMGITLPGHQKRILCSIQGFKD

[6] = biological target: Dual specificity protein kinase CLK3 (Homo sapiens) (UniProt P49761)
[7] = biological target: T2, Serine/threonine-protein kinase D2 (Homo sapiens) (UniProt Q9BZL6)
T2 sequence (whole entry): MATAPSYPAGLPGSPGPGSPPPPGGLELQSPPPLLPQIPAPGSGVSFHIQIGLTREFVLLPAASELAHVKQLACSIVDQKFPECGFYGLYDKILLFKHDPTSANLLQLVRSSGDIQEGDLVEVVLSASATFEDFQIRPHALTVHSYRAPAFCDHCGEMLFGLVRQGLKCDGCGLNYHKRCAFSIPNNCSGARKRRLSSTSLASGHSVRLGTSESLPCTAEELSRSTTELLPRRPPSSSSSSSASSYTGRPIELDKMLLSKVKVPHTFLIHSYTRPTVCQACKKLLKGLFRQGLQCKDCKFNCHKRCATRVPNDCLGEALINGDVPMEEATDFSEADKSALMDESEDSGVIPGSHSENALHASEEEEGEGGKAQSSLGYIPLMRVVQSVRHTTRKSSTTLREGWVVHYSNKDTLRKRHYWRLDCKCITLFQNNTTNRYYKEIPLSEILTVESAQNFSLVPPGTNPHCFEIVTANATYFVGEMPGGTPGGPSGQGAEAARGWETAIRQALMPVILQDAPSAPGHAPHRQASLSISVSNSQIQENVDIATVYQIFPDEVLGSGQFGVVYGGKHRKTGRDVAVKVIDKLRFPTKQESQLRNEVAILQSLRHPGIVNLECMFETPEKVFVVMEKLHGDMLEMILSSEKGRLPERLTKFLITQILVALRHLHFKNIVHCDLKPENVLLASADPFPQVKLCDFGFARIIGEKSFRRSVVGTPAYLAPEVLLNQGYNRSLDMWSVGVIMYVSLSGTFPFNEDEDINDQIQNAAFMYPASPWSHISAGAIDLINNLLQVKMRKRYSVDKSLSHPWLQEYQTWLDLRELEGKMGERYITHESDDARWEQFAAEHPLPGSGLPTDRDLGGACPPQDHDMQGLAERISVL

[8] = biological target: Casein kinase I isoform gamma-2 (Homo sapiens) (UniProt P78368)
[9] = biological target: AP2-associated protein kinase 1 (Homo sapiens) (UniProt Q2M2I8)
[10] = biological target: Activated CDC42 kinase 1 (Homo sapiens) (UniProt Q07912)
[11] = system: Receptor-type tyrosine-protein kinase FLT3 (Homo sapiens), P36888 [K663Q]
[12] = biological target: Mitogen-activated protein kinase kinase kinase 13 (Homo sapiens) (UniProt O43283)
[13] = biological target: Calcium/calmodulin-dependent protein kinase type 1D (Homo sapiens) (UniProt Q8IU85)
[14] = system: Receptor-type tyrosine-protein kinase FLT3 (Homo sapiens), P36888 [N841I]
[15] = biological target: Serine/threonine-protein kinase WNK2 (Homo sapiens) (UniProt Q9Y3S1)
[16] = biological target: Ephrin type-A receptor 6 (Homo sapiens) (UniProt Q9UF33)
[17] = biological target: Serine/threonine-protein kinase WNK1 (Homo sapiens) (UniProt Q9H4A3)
[18] = biological target: cAMP-dependent protein kinase catalytic subunit alpha (Homo sapiens) (UniProt P17612)

Serine/threonine-protein kinase WNK1 (Homo sapiens), sequence (Q9H4A3 whole entry, looked up): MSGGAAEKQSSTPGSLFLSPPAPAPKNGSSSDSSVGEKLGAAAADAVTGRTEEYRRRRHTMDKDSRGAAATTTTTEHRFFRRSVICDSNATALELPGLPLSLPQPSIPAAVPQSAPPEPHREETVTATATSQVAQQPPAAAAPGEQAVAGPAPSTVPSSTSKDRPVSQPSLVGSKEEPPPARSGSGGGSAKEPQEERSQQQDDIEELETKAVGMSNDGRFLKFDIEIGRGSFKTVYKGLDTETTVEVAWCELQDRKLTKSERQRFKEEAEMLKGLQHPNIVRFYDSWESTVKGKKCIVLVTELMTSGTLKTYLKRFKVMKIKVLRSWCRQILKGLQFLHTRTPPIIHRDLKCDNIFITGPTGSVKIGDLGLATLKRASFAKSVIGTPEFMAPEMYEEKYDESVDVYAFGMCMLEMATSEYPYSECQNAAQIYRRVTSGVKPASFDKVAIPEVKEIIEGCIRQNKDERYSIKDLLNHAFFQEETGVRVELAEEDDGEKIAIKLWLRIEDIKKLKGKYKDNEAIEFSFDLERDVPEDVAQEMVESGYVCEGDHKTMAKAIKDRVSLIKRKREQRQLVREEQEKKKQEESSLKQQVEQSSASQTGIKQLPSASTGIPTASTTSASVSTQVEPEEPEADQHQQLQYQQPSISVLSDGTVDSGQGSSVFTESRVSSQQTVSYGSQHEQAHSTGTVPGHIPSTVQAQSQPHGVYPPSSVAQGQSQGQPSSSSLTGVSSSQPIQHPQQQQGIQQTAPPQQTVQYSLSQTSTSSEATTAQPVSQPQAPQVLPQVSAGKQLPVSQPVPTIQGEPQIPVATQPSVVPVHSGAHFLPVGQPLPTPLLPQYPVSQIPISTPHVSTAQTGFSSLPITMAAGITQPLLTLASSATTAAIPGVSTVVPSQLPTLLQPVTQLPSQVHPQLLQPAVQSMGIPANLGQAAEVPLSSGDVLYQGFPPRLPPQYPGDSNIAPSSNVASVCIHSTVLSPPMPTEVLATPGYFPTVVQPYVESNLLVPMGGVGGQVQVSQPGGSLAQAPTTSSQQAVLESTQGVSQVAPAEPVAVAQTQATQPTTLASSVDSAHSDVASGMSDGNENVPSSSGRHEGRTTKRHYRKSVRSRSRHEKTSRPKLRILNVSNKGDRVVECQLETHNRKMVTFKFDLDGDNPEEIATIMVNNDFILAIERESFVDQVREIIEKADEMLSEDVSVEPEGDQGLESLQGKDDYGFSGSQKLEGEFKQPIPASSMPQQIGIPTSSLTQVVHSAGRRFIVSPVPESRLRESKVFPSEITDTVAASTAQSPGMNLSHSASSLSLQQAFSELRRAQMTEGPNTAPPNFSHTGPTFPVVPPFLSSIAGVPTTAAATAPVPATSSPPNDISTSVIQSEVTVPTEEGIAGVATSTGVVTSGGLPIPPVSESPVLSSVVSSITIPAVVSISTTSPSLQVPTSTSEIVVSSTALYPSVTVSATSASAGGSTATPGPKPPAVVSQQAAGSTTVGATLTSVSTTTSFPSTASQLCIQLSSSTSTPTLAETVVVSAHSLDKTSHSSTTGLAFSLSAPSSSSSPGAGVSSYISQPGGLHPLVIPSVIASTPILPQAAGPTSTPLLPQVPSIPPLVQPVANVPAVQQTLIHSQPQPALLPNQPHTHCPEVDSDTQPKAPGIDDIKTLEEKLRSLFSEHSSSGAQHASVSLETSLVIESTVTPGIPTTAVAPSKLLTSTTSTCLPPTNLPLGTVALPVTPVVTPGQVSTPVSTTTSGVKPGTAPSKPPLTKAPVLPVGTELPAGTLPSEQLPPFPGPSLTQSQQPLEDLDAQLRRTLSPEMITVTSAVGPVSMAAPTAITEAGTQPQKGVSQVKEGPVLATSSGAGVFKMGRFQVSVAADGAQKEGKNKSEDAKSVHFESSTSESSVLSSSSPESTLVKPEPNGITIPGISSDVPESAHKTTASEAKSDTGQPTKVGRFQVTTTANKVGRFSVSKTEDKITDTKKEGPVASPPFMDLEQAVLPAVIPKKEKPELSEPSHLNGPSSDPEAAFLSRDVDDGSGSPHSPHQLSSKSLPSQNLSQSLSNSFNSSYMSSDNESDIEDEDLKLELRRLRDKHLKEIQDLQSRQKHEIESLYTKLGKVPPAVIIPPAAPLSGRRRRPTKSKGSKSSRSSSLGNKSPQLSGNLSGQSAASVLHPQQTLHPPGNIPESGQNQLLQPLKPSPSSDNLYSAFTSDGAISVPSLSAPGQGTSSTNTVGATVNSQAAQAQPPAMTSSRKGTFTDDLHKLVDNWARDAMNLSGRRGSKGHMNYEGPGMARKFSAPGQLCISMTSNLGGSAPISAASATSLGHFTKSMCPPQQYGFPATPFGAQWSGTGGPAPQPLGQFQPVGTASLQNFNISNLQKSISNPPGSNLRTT
Activated CDC42 kinase 1 (Homo sapiens), sequence (Q07912 whole entry, looked up): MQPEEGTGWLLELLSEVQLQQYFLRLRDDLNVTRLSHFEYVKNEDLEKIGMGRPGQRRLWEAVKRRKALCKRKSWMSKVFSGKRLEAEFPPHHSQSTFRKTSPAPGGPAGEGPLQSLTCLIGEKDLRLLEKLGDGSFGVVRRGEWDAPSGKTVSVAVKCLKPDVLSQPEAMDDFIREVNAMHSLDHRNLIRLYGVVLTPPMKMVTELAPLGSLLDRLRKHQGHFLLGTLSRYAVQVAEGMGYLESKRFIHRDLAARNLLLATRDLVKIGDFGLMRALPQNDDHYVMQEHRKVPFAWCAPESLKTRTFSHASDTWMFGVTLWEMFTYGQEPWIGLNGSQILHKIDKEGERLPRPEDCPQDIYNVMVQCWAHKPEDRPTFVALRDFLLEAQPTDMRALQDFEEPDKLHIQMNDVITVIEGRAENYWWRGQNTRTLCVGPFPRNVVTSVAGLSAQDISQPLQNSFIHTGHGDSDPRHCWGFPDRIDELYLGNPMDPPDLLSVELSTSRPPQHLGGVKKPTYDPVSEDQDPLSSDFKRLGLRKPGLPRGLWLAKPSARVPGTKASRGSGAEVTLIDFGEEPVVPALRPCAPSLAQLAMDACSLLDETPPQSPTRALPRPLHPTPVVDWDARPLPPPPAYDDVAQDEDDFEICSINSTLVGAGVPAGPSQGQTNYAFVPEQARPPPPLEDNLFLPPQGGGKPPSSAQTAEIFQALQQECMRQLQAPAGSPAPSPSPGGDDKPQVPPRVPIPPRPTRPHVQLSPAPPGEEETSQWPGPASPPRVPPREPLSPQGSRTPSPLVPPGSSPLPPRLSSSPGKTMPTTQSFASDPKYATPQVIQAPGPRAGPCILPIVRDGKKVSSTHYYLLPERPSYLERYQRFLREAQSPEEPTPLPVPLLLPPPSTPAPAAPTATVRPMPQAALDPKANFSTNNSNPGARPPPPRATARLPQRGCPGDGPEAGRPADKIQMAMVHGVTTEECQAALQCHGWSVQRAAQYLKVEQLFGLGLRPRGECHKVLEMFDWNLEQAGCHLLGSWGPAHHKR
Casein kinase I isoform gamma-2 (Homo sapiens), sequence (P78368 whole entry, looked up, canonical isoform): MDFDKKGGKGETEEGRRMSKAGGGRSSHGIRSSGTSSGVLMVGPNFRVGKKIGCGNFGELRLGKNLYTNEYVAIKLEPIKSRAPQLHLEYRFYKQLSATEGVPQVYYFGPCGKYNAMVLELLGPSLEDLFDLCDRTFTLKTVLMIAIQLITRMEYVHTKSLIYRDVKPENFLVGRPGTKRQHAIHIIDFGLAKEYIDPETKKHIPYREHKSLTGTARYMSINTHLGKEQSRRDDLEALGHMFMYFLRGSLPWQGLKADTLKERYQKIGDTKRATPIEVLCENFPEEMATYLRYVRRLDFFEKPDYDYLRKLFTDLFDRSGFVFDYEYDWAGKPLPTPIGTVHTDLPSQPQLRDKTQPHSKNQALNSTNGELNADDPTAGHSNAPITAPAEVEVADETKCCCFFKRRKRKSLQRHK
Dual specificity protein kinase CLK3 (Homo sapiens), sequence (P49761 whole entry, looked up): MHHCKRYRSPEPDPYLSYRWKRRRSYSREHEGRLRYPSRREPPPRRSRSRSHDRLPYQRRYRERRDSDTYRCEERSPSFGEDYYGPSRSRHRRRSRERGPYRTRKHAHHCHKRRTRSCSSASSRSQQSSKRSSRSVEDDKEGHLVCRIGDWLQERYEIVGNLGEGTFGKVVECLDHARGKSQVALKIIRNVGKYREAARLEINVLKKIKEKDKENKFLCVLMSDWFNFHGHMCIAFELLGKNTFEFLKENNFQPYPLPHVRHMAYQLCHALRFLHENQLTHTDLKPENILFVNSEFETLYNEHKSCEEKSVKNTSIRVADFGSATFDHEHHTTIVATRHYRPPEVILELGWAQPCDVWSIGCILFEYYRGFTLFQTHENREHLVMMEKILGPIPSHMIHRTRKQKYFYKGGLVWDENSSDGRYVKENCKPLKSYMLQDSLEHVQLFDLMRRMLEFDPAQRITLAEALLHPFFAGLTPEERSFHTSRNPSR
Calcium/calmodulin-dependent protein kinase type 1D (Homo sapiens), sequence (Q8IU85 whole entry, looked up): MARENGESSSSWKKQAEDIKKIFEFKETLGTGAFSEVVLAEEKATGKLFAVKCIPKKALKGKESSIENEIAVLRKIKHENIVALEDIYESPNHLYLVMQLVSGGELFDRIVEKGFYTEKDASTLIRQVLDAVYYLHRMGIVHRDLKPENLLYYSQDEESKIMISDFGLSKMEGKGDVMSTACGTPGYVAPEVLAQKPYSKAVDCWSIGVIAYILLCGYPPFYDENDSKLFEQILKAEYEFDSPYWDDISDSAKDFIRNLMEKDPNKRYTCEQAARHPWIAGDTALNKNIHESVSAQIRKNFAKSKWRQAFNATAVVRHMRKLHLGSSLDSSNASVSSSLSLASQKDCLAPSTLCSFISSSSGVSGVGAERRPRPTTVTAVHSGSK

SMILES	residual activity [1]	residual activity [2]	residual activity [3]	residual activity [4]	residual activity [5]	residual activity [6]	residual activity [7]	residual activity [8]	residual activity [9]	residual activity [10]	residual activity [11]	residual activity [12]	residual activity [13]	residual activity [14]	residual activity [15]	residual activity [16]	residual activity [17]	residual activity [18]
CCc1ccccc1C(=O)Nc1n[nH]c2c(C)c(F)c(C3C(C#N)=C(C)N(C)C(C)=C3C#N)cc12 [BAY-3827]	100%	78%	100%	87%	60%	100%	87%	97%	81%	81%	13%	100%	87%	0%	100%	57%	100%	89%
CC1=C(C#N)C(c2ccc3c(c2)c(NC(=O)c2ccccc2C)nn3C)C(C#N)=C(C)N1 [BAY-974]	91%	100%	78%	79%	88%	94%	95%	95%	90%	86%	100%	99%	93%	74%	75%	89%	82%	77%
